In data set [1] the test system is B16-F10. Description: Induction of apoptosis in mouse B16F10 cells assessed as increase in cytochrome C level at 20 uM after 36 hrs by western blot analysis. Format: functional, cell-based. (In general: In western blotting, separated proteins are transferred to a membrane and probed.)
Data set [2] in a line: Cell cycle arrest in mouse B16F10 cells assessed as accumulation at G2/M phase at 20 uM after 24 hrs by propidium iodide staining based flow cytometry (reference value: 15.2 %). Format: functional. The settings on record: B16-F10. For orientation: In flow cytometry, cells or beads pass a laser one at a time.
Data set [3] relates to B16-F10. The data set can be described thus: Induction of apoptosis in mouse B16F10 cells assessed as increase in cytochrome C level at 10 uM after 36 hrs by western blot analysis. Format: functional, cell-based.
The test system of data set [4] is B16-F10. Description: Induction of apoptosis in mouse B16F10 cells assessed as late apoptotic cells at 20 uM after 24 hrs by annexin-V-FITC/propidium iodide staining based flow cytometry (reference value: 4.47 %). Format: functional.
Data set [5] has as its system RAW264.7. Description: Induction of apoptosis in mouse RAW264.7 cells assessed as early apoptotic cells at 20 uM after 24 hrs by annexin-V-FITC/propidium iodide staining based flow cytometry (reference value: 3.44 %). Format: cell-based. The settings on record: raw264.7, 24 h.
Data set [6] deals with B16-F10. The data set can be described thus: Antitumor activity in mouse B16F10 cells xenografted in C57BL/J mouse assessed as induction of apoptosis in tumor vasculature at 10 mg/kg, ip by TUNEL assay. Format: functional, organism-based.
The test system of data set [7] is MCF7. The data set can be described thus: Cytotoxicity against human MCF7 cells after 72 hrs by MTT assay. The settings on record: MCF7, 72 h. Format: functional, cell-based. (Tetrazolium dyes change colour on reduction, which living cells bring about.)
Data set [8] is described as follows: Induction of apoptosis in mouse NIH/3T3 cells assessed as late apoptotic cells at 20 uM after 24 hrs by annexin-V-FITC/propidium iodide staining based flow cytometry (reference value: 0.28 %). Format: cell-based. The following applies: nih3t3, 24 h.
In data set [9] the test system is A549. The data set can be described thus: Induction of apoptosis in human A549 cells assessed as late apoptotic cells at 20 uM after 24 hrs by annexin-V-FITC/propidium iodide staining based flow cytometry (reference value: 7.40 %). Format: functional.
The subject of data set [10] is A549. Description: Induction of apoptosis in human A549 cells assessed as viable cells at 20 uM after 24 hrs by annexin-V-FITC/propidium iodide staining based flow cytometry (reference value: 87.96 %). Format: functional. The following applies: A549, 24 h, read-out: Activity.
The test system of data set [11] is B16-F10. The data set can be described thus: Induction of apoptosis in mouse B16F10 cells assessed as increased Bax expression at 20 uM after 36 hrs by western blot analysis. Format: functional, cell-based.
Data set [12] concerns B16-F10. The data set can be described thus: Induction of apoptosis in mouse B16F10 cells assessed as increased Bax expression at 10 uM after 36 hrs by western blot analysis. Format: functional, cell-based.
The subject of data set [13] is A549. The data set can be described thus: Induction of apoptosis in human A549 cells assessed as necrotic cells at 20 uM after 24 hrs by annexin-V-FITC/propidium iodide staining based flow cytometry (reference value: 3.23 %). Format: functional.
Data set [14] concerns B16-F10. Description: Induction of apoptosis in mouse B16F10 cells assessed as necrotic cells at 20 uM after 24 hrs by annexin-V-FITC/propidium iodide staining based flow cytometry (reference value: 1.41 %). Format: functional.
Data set [15] deals with A549. Description: Cytotoxicity against human A549 cells at 5 and 10 uM after 72 hrs cells pretreated with 50 uM of RU486 for 4 hrs by MTT assay. Format: functional, cell-based.
Data set [16] in a line: Cell cycle arrest in mouse B16F10 cells assessed as accumulation at S phase at 20 uM after 24 hrs by propidium iodide staining based flow cytometry (reference value: 5.4 %). Format: functional. The following applies: B16-F10.
Data set [17] relates to RAW264.7. Description: Induction of apoptosis in mouse RAW264.7 cells assessed as necrotic cells at 20 uM after 24 hrs by annexin-V-FITC/propidium iodide staining based flow cytometry (reference value: 1.81%). Format: cell-based. The settings on record: raw264.7, 24 h.
Data set [18] relates to B16-F10. Description: Induction of apoptosis in mouse B16F10 cells assessed as increase in cleaved caspase 3 level at 20 uM after 36 hrs by western blot analysis. Format: functional, cell-based.
Data set [19] relates to A549. The data set can be described thus: Induction of apoptosis in human A549 cells assessed as early apoptotic cells at 20 uM after 24 hrs by annexin-V-FITC/propidium iodide staining based flow cytometry (reference value: 1.41 %). Format: functional.
Data set [20] is described as follows: Cytotoxicity against mouse NIH/3T3 cells after 72 hrs by MTT assay. Format: cell-based. The following applies: NIH3T3, 72 h.
Data set [21] deals with B16-F10. The data set can be described thus: Induction of apoptosis in mouse B16F10 cells assessed as early apoptotic cells at 20 uM after 24 hrs by annexin-V-FITC/propidium iodide staining based flow cytometry (reference value: 0.46 %). Format: functional.

The structures appear in SMILES notation. The source made the active and inactive calls. The rule behind the calls is not given here.

This note sets out measurements from ChEMBL document CHEMBL3751695, “Cationic lipid-conjugated hydrocortisone as selective antitumor agent” (Eur J Med Chem, 2016).

For orientation: IC50 means the point on the concentration scale where inhibition reaches its midpoint. Read a high IC50 as weaker potency. As for `CCCCCCCCCCCCCCCC[N+](C)(CCCCCCCCCCCCCCCC)CCNC(=O)[C@@]1(O)CC[C@H]2[C@@H]3CCC4=CC(=O)CC[C@]4(C)[C@H]3[C@@H](O)C[C@@]21C.[Cl-]`, the outcome in data set [1], in data set [3], in [6], in data set [11], in data set [12] and in [15] was Active. The result in [18] was Active. Further, the Activity in data set [2] amounted to 41.4%; in data set [4], 32.41%; in data set [5] it was 1.63%; in data set [8] it was 0.55%; in data set [9] it was 66.05%; in data set [13], 1.36%. The Activity worked out at 8.52% in data set [14]; 9.6% in data set [16]; 1.36% in [17]; 7.53% in data set [19]; 1.67% in data set [21]. For the same compound, the IC50 in data set [7] came out at 3.7 µM; in [20], 20 µM. The viability at 20 µM in data set [10] came to 25.1%.
